Experimental findings from patent US20170086467A1, “MOLLUSCICIDE COMPOSITIONS AND METHODS OF USE THEREOF” (ECOFLORA AGRO SAS, priority 2014, published 2017) are described below.

Like-named read-outs stand apart in the source and are kept apart here.

The conditions of data set [1]: 200° C.; one hour drying.
Description: Caffeine was also quantitated by HPLC to determine the thermal stability of the molecule.
Data set [2] deals with banana tree snails (African snails). The experiment in a line: Mortality of banana plantation snails on treated plates in a shade house. To be noted: T7, 2 g/plate. In kind it is in vivo. The method, then:
The experiments were conducted in a shade house. Plastic plates and baskets for cover were used to keep the snails in contact with the products. Live snails were obtained by collection/pick up in a banana plantation. Approximately 250 snails were captured early in the morning, the time of day when they are still found in large numbers on the leaves and trunks of banana plants.
BROMOREX® 9.37 is a liquid formulation comprising capsicum extract and mustard essential oil. metaldehyde is a chemical molluscicide.
Four plates per treatment were randomly arranged on a shelf in the shade house. At the bottom of each plate small portions of banana leaves, papaya, and two slices of ripe bananas were placed. 20 mL of each sample was poured into each plate. Eight live snails of the same morphology and size were placed on each plate. Each treatment was repeated 4 times. The plates were covered with baskets that promoted good ventilation and prevented the snails from escaping. The treatments were carried out in late afternoon.
The behavior of snails in contact with the products as well as the mortality of the snails were recorded and interpreted. The data on the mortality of snails to 5 days after application of the products were statistically analyzed using the R software version 3.0.1. The separation of averages for significant effects was made using the Newman-Keuls test at 5% significant level.

Consider `Cn1c(=O)c2c(ncn2C)n(C)c1=O` [caffeine, 3,7-dihydro-1,3,7-trimethyl-1H-purine-2,6-dione], for which the “thermal stability (in words)” value is “stable”. For the same compound, the “thermal stability (in words)” value in data set [1] was “Pyrolysis and caffeine sublimation were observed”.

As to `CC1OC(C)OC(C)OC(C)O1` (stereo not shown) [metaldehyde], the values for the mortality rate in data set [2] (3 hours after treatment) and in data set [2] (after 5 days) were 6.25% and 34%, respectively.
